Test results as given in patent publication US20130090494A1, “TETRAKIS[BIS(DIHYDROXYPHOSPHORYL)METHYL]CALIX[4]ARENE OR ITS SODIUM SALT THEREOF AS FIBRIN POLYMERIZATION INHIBITORS” (priority 2010, published 2013).
Entries after “also recorded” stand apart in the source; their conditions may differ. Counter-ions that a name gives are not always drawn.

Tests used:
[1] = tested on: human blood plasma coagulation (outer pathway); assay: Prothrombin time (PT) of human blood plasma
Method: (§1) The measuring of prothrombin time (PT) and activated partial thromboplastin time (APTT) for coagulation of human plasma in the presence of calixarene C-192.
(§2) The effects of calixarene C-192 on the coagulation of human blood plasma were studied using a coagulometer (CT 2410 ‘Solar’, Belarus).
Using coagulometer measured the prothrombin ratio, which is calculated using the formula: […]
where: PR—prothrombin ratio; PTe—prothrombin time in the investigating blood plasma; PTc—prothrombin time in the control blood plasma.
The prothrombin time were calculated using the method. The dissolved calixarene C-192 at concentration of 50 μM was added to cuvette in the experience. The prothrombin ratio calculating by formula (I) equals 1.6.

[2] = biological target: T1, desAABB fibrin monomer polymerization (Homo sapiens, UniProt P02671+P02675+P02679); assay: Turbidity analysis of desAABB fibrin monomer polymerization; assay type: biochemical; conditions: for final (maximum) turbidity of fibrin clot (Δh) / lag-time (τ) / maximum rate of fibrin polymerization (Vmax): desAABB fibrin polymerization medium, 0.5 μM, FIG. 2
T1 construct: DesAABB fibrin monomer was prepared in 0.02 M acetic acid was prepared during reaction fibrinogen+thrombin; The fibrinogen was prepared by sodium sulfate precipitation from human plasma; from tissue; host or cells: human blood plasma; fibrinogen converted with thrombin
T1 sequence (P02671 36-866 limits assumed): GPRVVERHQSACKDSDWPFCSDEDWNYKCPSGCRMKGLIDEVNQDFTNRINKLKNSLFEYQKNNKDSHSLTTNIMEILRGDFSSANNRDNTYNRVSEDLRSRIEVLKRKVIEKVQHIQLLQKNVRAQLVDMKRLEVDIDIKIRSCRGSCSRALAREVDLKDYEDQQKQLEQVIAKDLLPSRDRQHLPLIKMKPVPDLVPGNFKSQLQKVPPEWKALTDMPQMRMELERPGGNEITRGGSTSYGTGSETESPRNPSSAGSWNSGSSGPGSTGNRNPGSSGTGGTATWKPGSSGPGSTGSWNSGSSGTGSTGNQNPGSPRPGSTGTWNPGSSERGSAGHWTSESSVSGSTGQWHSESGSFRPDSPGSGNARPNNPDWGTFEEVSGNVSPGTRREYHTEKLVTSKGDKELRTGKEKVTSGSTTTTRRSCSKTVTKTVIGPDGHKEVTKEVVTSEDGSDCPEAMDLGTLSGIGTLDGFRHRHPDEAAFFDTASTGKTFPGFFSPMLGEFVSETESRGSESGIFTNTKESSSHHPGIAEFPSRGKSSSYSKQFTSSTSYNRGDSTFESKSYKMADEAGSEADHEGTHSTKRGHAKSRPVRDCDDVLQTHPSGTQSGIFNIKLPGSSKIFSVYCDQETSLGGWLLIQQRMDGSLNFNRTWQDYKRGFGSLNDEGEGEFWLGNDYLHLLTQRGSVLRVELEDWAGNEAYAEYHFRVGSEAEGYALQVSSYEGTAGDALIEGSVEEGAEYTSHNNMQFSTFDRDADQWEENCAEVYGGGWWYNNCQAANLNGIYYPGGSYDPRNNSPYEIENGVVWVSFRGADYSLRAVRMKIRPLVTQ
T1 sequence (P02675 45-491 limits assumed): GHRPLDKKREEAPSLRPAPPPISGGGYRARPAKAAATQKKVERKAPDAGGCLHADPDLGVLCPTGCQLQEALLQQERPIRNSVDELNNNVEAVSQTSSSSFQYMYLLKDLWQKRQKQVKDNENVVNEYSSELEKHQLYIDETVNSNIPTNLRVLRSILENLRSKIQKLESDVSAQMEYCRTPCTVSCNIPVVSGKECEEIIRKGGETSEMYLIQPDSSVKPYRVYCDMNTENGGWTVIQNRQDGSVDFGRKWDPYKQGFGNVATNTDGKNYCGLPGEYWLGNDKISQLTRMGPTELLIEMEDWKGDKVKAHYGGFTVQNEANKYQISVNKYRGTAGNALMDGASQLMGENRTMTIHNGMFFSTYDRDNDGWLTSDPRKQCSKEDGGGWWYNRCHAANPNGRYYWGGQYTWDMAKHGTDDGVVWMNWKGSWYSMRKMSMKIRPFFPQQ
T1 sequence (P02679 27-453): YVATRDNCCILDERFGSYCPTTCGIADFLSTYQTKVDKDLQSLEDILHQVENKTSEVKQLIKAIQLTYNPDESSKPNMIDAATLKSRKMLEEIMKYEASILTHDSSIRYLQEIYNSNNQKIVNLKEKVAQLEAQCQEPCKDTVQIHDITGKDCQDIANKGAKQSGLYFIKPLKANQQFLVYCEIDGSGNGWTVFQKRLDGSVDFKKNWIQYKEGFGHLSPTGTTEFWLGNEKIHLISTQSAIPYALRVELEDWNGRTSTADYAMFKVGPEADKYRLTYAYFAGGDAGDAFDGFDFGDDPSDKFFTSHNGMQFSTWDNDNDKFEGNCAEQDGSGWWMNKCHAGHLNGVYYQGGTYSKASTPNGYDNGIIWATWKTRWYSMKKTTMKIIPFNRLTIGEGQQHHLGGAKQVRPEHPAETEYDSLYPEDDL
Method: (§3) The fibrin polymerization by the action of thrombin on fibrinogen consists of two reactions: 1) thrombin-catalyzed conversion of fibrinogen to fibrin and 2) polymerization of the fibrin monomer to form three-dimensional network, which is the framework of thrombus.
(§4) The turbidity analysis of desAABB fibrin polymerization and of fibrin polymerization in the fibrinogen+thrombin reaction in the present and the absent of declared calixarenes C-192 and C-145
(§5) The fibrinogen was prepared by sodium sulfate precipitation from human plasma. DesAABB fibrin monomer was prepared in 0.02 M acetic acid was prepared during reaction fibrinogen+thrombin [10]. Polymerization of fibrin desAA and desAABB was studied in the polymerization medium containing at a low concentration thrombin at pH 5.3 [7]. In the experience of the system fibrinogen+thrombin in polymerization medium to add declared calixarene C-192 at a concentration of 0.5 mM.
The declared calixarene C-192 and C-145 was added on the desAABB fibrin polymerization medium at a concentration of 0.5 μM.

[3] = tested on: mice; assay: Acute toxicity in healthy adult mice; conditions: mouse, in vivo
[4] = Acute toxicity in healthy adult mice; conditions: mouse, in vivo, oral; healthy adult mice, perorally
[5] = biological target: T2, fibrin polymerization in the thrombin-fibrinogen reaction (Homo sapiens, UniProt P02671+P02675+P02679); assay: Turbidity analysis of fibrin polymerization in the thrombin-fibrinogen reaction; assay type: biochemical
T2 construct: The fibrinogen was prepared by sodium sulfate precipitation from human plasma; from tissue; host or cells: human blood plasma
T2 sequence (P02671 20-644 isoform P02671-2 limits assumed): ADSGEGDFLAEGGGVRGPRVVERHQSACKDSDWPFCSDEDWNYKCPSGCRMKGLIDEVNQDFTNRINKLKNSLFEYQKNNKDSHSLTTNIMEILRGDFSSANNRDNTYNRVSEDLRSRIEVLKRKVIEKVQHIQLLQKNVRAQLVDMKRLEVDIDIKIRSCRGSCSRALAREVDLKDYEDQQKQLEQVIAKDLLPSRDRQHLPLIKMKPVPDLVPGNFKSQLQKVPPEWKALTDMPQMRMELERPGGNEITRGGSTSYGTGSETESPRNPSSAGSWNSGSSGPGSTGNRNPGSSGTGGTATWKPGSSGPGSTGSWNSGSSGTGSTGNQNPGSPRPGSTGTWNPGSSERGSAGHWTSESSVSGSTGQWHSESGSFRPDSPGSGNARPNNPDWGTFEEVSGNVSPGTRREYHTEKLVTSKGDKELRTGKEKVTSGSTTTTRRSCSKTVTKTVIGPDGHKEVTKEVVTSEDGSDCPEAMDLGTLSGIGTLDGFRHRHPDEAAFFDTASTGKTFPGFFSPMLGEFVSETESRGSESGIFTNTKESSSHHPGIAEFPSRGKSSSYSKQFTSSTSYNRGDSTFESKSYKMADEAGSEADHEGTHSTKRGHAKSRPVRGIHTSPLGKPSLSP
T2 sequence (P02675 45-491 limits assumed): T1 sequence (P02675 45-491 limits assumed)
T2 sequence (P02679 27-437 isoform P02679-2 limits assumed): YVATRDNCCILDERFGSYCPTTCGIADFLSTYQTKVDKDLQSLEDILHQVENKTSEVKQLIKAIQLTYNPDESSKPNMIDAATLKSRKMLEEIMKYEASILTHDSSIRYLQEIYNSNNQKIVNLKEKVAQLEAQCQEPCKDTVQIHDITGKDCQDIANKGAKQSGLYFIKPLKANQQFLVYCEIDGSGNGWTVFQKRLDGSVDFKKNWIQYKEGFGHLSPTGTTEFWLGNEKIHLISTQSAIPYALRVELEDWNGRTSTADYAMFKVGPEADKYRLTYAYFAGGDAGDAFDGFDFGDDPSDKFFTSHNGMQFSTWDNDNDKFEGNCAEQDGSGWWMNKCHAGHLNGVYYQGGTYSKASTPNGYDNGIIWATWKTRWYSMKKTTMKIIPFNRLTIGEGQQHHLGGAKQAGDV
Method: as §3, §4, §5

[6] = tested on: human blood plasma coagulation (internal pathway); assay: Activated partial thromboplastin time (APTT) of human blood plasma
Source text: as §1, §2
The activated partial thromboplastin time calculated by the method. In the APTT-test comparing the formation of the fibrin clot in control samples: pure blood plasma specimens and blood plasma, in which the solute of calixarene C-192 at concentration of 50 μM. The prothrombin ratio Calculated by formula (1) equals 5.4.

[7] = biological target: T3, fibrin protofibril formation (Homo sapiens, UniProt P02671+P02675+P02679); assay: Transmission electron microscopy of fibrin formed in the thrombin-fibrinogen reaction; assay type: biochemical; conditions: 50000 magnification, FIG. 4
T3 construct: The fibrinogen was prepared by sodium sulfate precipitation from human plasma; from tissue; host or cells: human blood plasma
T3 sequence (P02671 20-644 isoform P02671-2 limits assumed): T2 sequence (P02671 20-644 isoform P02671-2 limits assumed)
T3 sequence (P02675 45-491 limits assumed): T1 sequence (P02675 45-491 limits assumed)
T3 sequence (P02679 27-437 isoform P02679-2 limits assumed): T2 sequence (P02679 27-437 isoform P02679-2 limits assumed)
Source text: The study of desAABB fibrin polymerization in the thrombin-fibrinogen reaction by transmission electron microscopy in the present and the absent of declared calixarenes C-192 and C-145
The analysis of the electron micrographs of the fibrin formed in the fibrinogen+thrombin reaction at different time intervals after the polymerization process beginning in the absence of calixarene C-192 (FIG. 4, A and B) and in the presence of calixarene C-192 (FIG. 4, C, D).
The samples of polymerizing fibrin produced in the thrombin-fibrinogen reaction in the absence or the presence of calixarene C-192 were taken out of the reaction medium at various times, placed on a carbon-coated grid for 2 min and then stained with 1% (w/v) uranyl acetate for 1 min. Transmission electron microscopy was performed with an H-600 electron microscope (Hitachi, Tokyo, Japan). Electron micrographs were obtained at −50 000 magnification.

[8] = biological target: T4, fibrin polymerization (Homo sapiens, UniProt P02671+P02675+P02679); assay: Turbidity analysis of fibrin polymerization (system not specified); assay type: biochemical; conditions: applicant's own experiments
T4 sequence (P02671 20-644 isoform P02671-2 limits assumed): T2 sequence (P02671 20-644 isoform P02671-2 limits assumed)
T4 sequence (P02675 45-491 limits assumed): T1 sequence (P02675 45-491 limits assumed)
T4 sequence (P02679 27-437 isoform P02679-2 limits assumed): T2 sequence (P02679 27-437 isoform P02679-2 limits assumed)
Source text: Furthermore, because of electro neutrality of the declared calixarene-145 molecule, it may be more suitable for injection to a living organism as an inhibitor of fibrin polymerization and the process of blood clotting, as well.

[9] = normal human blood plasma, FIG. 3
[10] = fibrinogen+thrombin system, C-192 at 0.5 mM, FIG. 1

Row | Structure (SMILES) | concentration that doubles the prothrombin time (PT) [1, 9] | prothrombin ratio (PR=PTe/PTc) ([1]; prothrombin time, human plasma, 50 μM) | final (maximum) turbidity of fibrin clot (Δh) ([2]; listed as C-192) | lag-time (τ) ([2]; listed as C-192) | maximum rate of fibrin polymerization (Vmax) ([2]; listed as C-192) | IC50 ([2]; fibrin monomer polymerization) [µM] | toxicity class [3] | LD50 [4] [mg/kg] | final turbidity of fibrin clot (Δh) [5, 10] | lag-time (τ) [5, 10] | maximum rate of fibrin polymerization (Vmax) [5, 10] | IC50 ([5]; turbidity analysis, thrombin-fibrinogen reaction) [µM] | prothrombin ratio calculated by formula (1) in the APTT-test ([6]; APTT-test, human plasma, 50 μM) | concentration that doubles the APTT [6, 9] | effect on fibrin polymerization stage seen by electron microscopy [7] | final (maximum) turbidity of fibrin clot (Δh) ([2]; listed as C-145) | lag-time (τ) ([2]; listed as C-145) | maximum rate of fibrin polymerization (Vmax) ([2]; listed as C-145) | IC50 [8] [µM]
1 | O=P(O)(O)C(c1cc2c(O)c(c1)Cc1cc(C(P(=O)(O)O)P(=O)(O)O)cc(c1O)Cc1cc(C(P(=O)(O)O)P(=O)(O)O)cc(c1O)Cc1cc(C(P(=O)(O)O)P(=O)(O)O)cc(c1O)C2)P(=O)(O)O [calixarene C-192, 5,11,17,23-tetrakis[bis(dihydroxyphosphoryl)methyl]calix[4]arene] | 7.0·10^−5 M | 1.6 | decreased | increased significantly | decreased | 1 | median toxic compound | 780 | decreased; also recorded: reduced | increases; also recorded: significantly increased | significantly decreased; also recorded: greatly reduced | 0.5 | 5.4 | 1.7·10^−5 M | inhibits the first stage of fibrin polymerization protofibril formation; also recorded: inhibits the first stage of fibrin polymerization protofibril building | – | – | – | –
2 | O=P(O)(O)C(c1cc2c(O)c(c1)Cc1cc(C(P(=O)(O)O)P(=O)(O)O)cc(c1O)Cc1cc(C(P(=O)(O)O)P(=O)(O)O)cc(c1O)Cc1cc(C(P(=O)(O)O)P(=O)(O)O)cc(c1O)C2)P(=O)(O)O [calixarene C-145, octasodium salt of 5,11,17,23-tetrakis [bis](dihydroxyphosphoryl)methyl calix[4]arene] | – | – | – | – | – | – | – | – | – | – | – | – | – | – | – | significantly decreased | increases; also recorded: increased significantly | significantly decreased | 2.5
